Measurements taken from PubChem BioAssay AID720589 (Broad Institute, 2013).
Active and inactive are the calls of the source.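 Rule for the calls: active = fitted curve drops below -35% activity at a concentration within twice the top valid tested dose; inconclusive = no clear call, values can overlap the other calls; inactive = signal rising instead of falling, among other cases.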

Test: ATP-based viability loss in HepG2 cells – cell-based, CellTiter-Glo luminescence, cherry-pick, set 3, cytotoxicity control, dose response (AID 720589)
Conditions: HepG2 viability, ATP luminescence (CellTiter-Glo), 72 h; at 0.011 µM; active compounds read low; 0% = untreated, negative = ATP loss

Structure (SMILES) | max activity
CCS(=O)(=O)N1Cc2ccccc2CC1C(=O)Nc1nnc(SCc2ccc(C#N)cc2)s1 (centres undefined) | 21.9% (inactive)
Cc1cc(C(=O)NNC(=O)c2ccc(S(=O)(=O)N(C)C)cc2)c(C)o1 | 20% (inactive)
CC(C)(C)c1ccc(/C=N/Nc2ccc(C(=O)O)cc2)cc1 | 17.4% (inactive)
COc1ccccc1N(/N=C1\Sc2ccccc2C1=O)C(C)=O | -37.6% (inactive)
CCNC(=O)c1cccc(S(=O)(=O)N2CCCCCC2)c1 | -31.4% (inactive)
COC(=O)c1c(C)[nH]c(/C=N/Nc2ccccc2)c1C | -17.5% (inactive)
N/C(=C\C(=O)c1cc(Cl)ccc1O)C(Cl)(Cl)Cl | -18.1% (inactive)
O=C(CCCCl)Nc1nc(-c2ccc3c(c2)OCCO3)cs1 | -25% (inactive)
C(=C\c1ccc(C2[C@H]3CNC[C@@H]2N3Cc2ccccn2)cc1)/c1ccccc1 (some centres undefined) | -23.3% (inactive)
COc1cc(/C=N/NS(=O)(=O)c2ccc3ccccc3c2)ccc1OCc1ccc(C(=O)O)cc1 | 33.7% (inactive)

Same assay, conditions: HepG2 viability, ATP luminescence (CellTiter-Glo), 72 h; at 0.035 µM; active compounds read low; 0% = untreated, negative = ATP loss

Structure (SMILES) | max activity
CC1(C)Oc2cc3oc(-c4cc(O)cc(O)c4)cc3cc2CC1O (centres undefined) | -28.3% (inactive)
CCc1ccc(/C=C2\SC(=S)N(CCC(=O)Nc3cc(C)on3)C2=O)cc1 | -25.9% (inactive)
COCCCNc1ccn2nc(-c3ccccc3)cc2n1 | -48% (inactive)
Cc1ccc(C(=O)CN2C(=O)c3ccccc3S2(=O)=O)cc1 | 23.9% (inactive)
CCOC(=O)Cc1ccc(NC(=O)c2ccccc2Br)cc1 | -16.1% (inactive)
COc1ccc(C2=Nn3c(nnc3-c3ccccc3OC)SC2)cc1OCC1CC1 | -29% (inactive)
COC(=O)C[C@@H]1CC[C@@H]2[C@H](COc3ccc(NC(=O)c4ccc(F)c(F)c4)cc3C(=O)N2C)O1 | -21% (inactive)
COc1ccc(/C=C2\SC(=S)N(CCCC(=O)NNC(=O)c3ccccc3O)C2=O)cc1 | -21.1% (inactive)
O=c1c2ccccc2oc2ccc(C#CC3(O)CCCCC3)cc12 | -33.7% (inactive)

Same assay, conditions: HepG2 viability, ATP luminescence (CellTiter-Glo), 72 h; at 0.1 µM; active compounds read low; 0% = untreated, negative = ATP loss

Structure (SMILES) | max activity
Cc1ccc(S(=O)(=O)N(C)C[C@H]2Oc3c(cccc3N(C)C)C(=O)N([C@@H](C)CO)C[C@@H]2C)cc1 | -28.2% (inactive)
COC(=O)C[C@@H]1CC[C@@H]2[C@@H](COc3ccc(NC(=O)Nc4cccc(C#N)c4)cc3C(=O)N2C)O1 | -8.7% (inactive)
O=C(O)c1ccc(N/N=C/c2cc(Br)cs2)cc1 | -24.3% (inactive)
O=C1Nc2ccccc2C1=Nc1ccc(Br)cc1 | -11.9% (inactive)
CN(C)C(=O)c1cccc(-c2ccc(C3[C@@H]4CN(Cc5nccs5)C[C@H]3N4)cc2)c1 (some centres undefined) | -30.3% (inactive)
CN(C(=O)COC(=O)c1cc(-c2ccccc2Cl)nc2ccccc12)C1CCS(=O)(=O)C1 (centres undefined) | -27.5% (inactive)
COCCOC(=O)N1C(=O)[C@@]2(c3cc(C#CCC(C(=O)OC)C(=O)OC)ccc31)[C@H](c1ccccc1OCCO)N1[C@H](c3ccccc3)[C@H](c3ccccc3)OC(=O)[C@H]1[C@@H]2C(=O)N1CCN(c2ncccn2)CC1 | -30.6% (inactive)
CCn1c(C)cc(C(=O)CN2C(=O)c3ccccc3S2(=O)=O)c1C | -11.5% (inactive)

Same assay, conditions: HepG2 viability, ATP luminescence (CellTiter-Glo), 72 h; at 0.3 µM; active compounds read low

Structure (SMILES) | max activity
O=C1NC(=O)N(CCc2ccc(F)cc2)C(=O)/C1=C/C=C/c1ccccc1 | -15.6% (inactive)

Same assay, conditions: HepG2 viability, ATP luminescence (CellTiter-Glo), 72 h; at 0.3 µM; active compounds read low; 0% = untreated, negative = ATP loss

Structure (SMILES) | max activity
COc1cc(-c2cnc3c(NC=O)cc(-c4cccc(NC(C)=O)c4)cn23)cc(OC)c1OC | -32.8% (inactive)
COc1ccc(C2=Nn3c(nnc3-c3ccccc3F)SC2)cc1OC1CCOC1 (centres undefined) | -28.9% (inactive)
C[C@@H]1CN([C@H](C)CO)C(=O)c2cc(NS(=O)(=O)c3ccc(Cl)cc3)ccc2O[C@@H]1CN(C)Cc1ccc(Cl)c(Cl)c1 | -36.6% (inactive)
C[C@H]1CN([C@@H](C)CO)C(=O)c2cc(NS(=O)(=O)c3ccc(Cl)cc3)ccc2O[C@H]1CN(C)Cc1ccc(Cl)c(Cl)c1 | -20.4% (inactive)
O=C1c2ccccc2C(=O)N1CCCCNc1ccccc1 | -34.9% (inactive)
CCCc1cc(=O)oc2c3c(c4c(c12)OC(C)(C)C=C4)OC(C)C(C)C3O (centres undefined) | -25.9% (inactive)
COC(=O)C[C@H]1CC[C@H]2[C@@H](COc3ccc(NC(=O)Nc4cccc(Cl)c4)cc3C(=O)N2C)O1 | -27.3% (inactive)
CCOc1ccccc1CNC(=O)c1ccc(Sc2ccc(Cl)cc2)c(NC(C)=O)c1 | -29.5% (inactive)
COC(=O)C[C@@H]1CC[C@@H]2[C@H](COc3ccc(NC(=O)c4cc(C)on4)cc3C(=O)N2C)O1 | -20% (inactive)
C[C@@H]1CCCCO[C@@H](CN(C)C(=O)Cc2ccccc2)[C@@H](C)CN([C@@H](C)CO)C(=O)c2cc(NS(=O)(=O)c3ccc(F)cc3)ccc2O1 | -23.7% (inactive)

Same assay, conditions: HepG2 viability, ATP luminescence (CellTiter-Glo), 72 h; at 0.35 µM; active compounds read low; 0% = untreated, negative = ATP loss

Structure (SMILES) | max activity
COC(=O)C[C@@H]1CC[C@H]2[C@H](COc3ccc(NC(=O)Nc4cc(C)cc(C)c4)cc3C(=O)N2C)O1 | 15% (inactive)

Same assay, conditions: HepG2 viability, ATP luminescence (CellTiter-Glo), 72 h; at 0.9 µM; active compounds read low

Structure (SMILES) | max activity
COC(=O)[C@H]1[C@H](CO)[C@H]2Cn3c(ccc(-c4ccccc4F)c3=O)[C@@H]1N2CC1CCCC1 | -23.4% (inactive)

Same assay, conditions: HepG2 viability, ATP luminescence (CellTiter-Glo), 72 h; at 0.9 µM; active compounds read low; 0% = untreated, negative = ATP loss

Structure (SMILES) | max activity
COc1ccc(/C=C2/SC(=S)N(CCCC(=O)Nc3ccccc3C(=O)O)C2=O)cc1 | -31.4% (inactive)
S=c1[nH]nc(-c2cc(-c3ccccc3)n[nH]2)n1/N=C/C(Br)=C/c1ccccc1 | -17.9% (inactive)

Same assay, conditions: HepG2 viability, ATP luminescence (CellTiter-Glo), 72 h; at 1 µM; active compounds read low; 0% = untreated, negative = ATP loss

Structure (SMILES) | max activity
C[C@H]1CN([C@@H](C)CO)C(=O)Cc2cc(NC(=O)CCCCCC(=O)Nc3ccccc3N)ccc2O[C@H]1CN(C)Cc1ccc(C(F)(F)F)cc1 | -22.7% (inactive)

Same assay, conditions: HepG2 viability, ATP luminescence (CellTiter-Glo), 72 h; at 2.85 µM; active compounds read low

Structure (SMILES) | max activity
O=C(Nc1ccc(OC(=O)N2CCCCC2)cc1)N1CCOCC1 | -13.3% (inactive)
C[C@]12CC[C@H](O)C[C@H]1CC[C@@H]1C2CC[C@]2(C)[C@@H](C3=CC(=O)OC3)[C@@H](O)C[C@]12O (some centres undefined) | -53.6% (inactive)

Same assay, conditions: HepG2 viability, ATP luminescence (CellTiter-Glo), 72 h; at 2.85 µM; active compounds read low; 0% = untreated, negative = ATP loss

Structure (SMILES) | max activity
Cc1ccccc1N=Nc1c(O)n(C)c2ccccc12 | -14.8% (inactive)
Cc1ccsc1/C=N/Nc1cccc(C(=O)O)c1 | -32.4% (inactive)
CC(C)Oc1ccc(Br)cc1C(=O)N/N=C/c1c[nH]c2ccccc12 | -17% (inactive)
O=C(C[C@@H]1CC[C@@H]2[C@H](COC[C@@H](O)CN2S(=O)(=O)c2ccc(F)cc2)O1)NCc1ccc(Cl)c(Cl)c1 | -11.2% (inactive)

Same assay, conditions: HepG2 viability, ATP luminescence (CellTiter-Glo), 72 h; at 8 µM; active compounds read low; 0% = untreated, negative = ATP loss

Structure (SMILES) | max activity
C[C@@H]1CN([C@@H](C)CO)C(=O)c2cccc(NC(=O)Nc3cccc4ccccc34)c2O[C@@H]1CN(C)Cc1ccc(C(=O)Nc2ccccc2N)cc1 | -36.9% (inactive)
CC(=O)c1ccc(N(C(=O)Cn2nnc3ccccc32)C(C(=O)NCc2ccccc2)c2ccccn2)cc1 (centres undefined) | -38% (inactive)
CCOc1ccc(/C=C2\CCc3ccccc3C2=O)cc1 | -13.7% (inactive)
CN(c1ccc(NC(=O)CCc2c[nH]c3ccccc23)cc1)c1ccccn1 | -31.2% (inactive)
CCc1ccc(/C=C2\SC(=S)N(CCCC(=O)NC3=NCCS3)C2=O)cc1 | -19% (inactive)
CCN1CCS/C1=C\C=C\C1=[N+](CC)CCS1 | -37.7% (inactive)
O=C(O)c1ccc(N/N=C/c2c(F)cccc2Cl)cc1 | -13.6% (inactive)

Same assay, conditions: HepG2 viability, ATP luminescence (CellTiter-Glo), 72 h; at 26 µM; active compounds read low; 0% = untreated, negative = ATP loss

Structure (SMILES) | max activity
O=C(O)c1ccc(N/N=C/c2c[nH]c3ccccc23)cc1 | -17.3% (inactive)
Nc1sc(-c2ccccc2)cc1-c1n[nH]c(=S)n1C1CCCCC1 | -25.2% (inactive)
Cc1c(N=Cc2cc(Br)cc(Br)c2O)cccc1C(=O)O | -9.11% (inactive)
O=C(N/N=C/c1ccc[nH]1)c1cc(-c2ccc(Cl)cc2)nc2ccccc12 | -21.3% (inactive)
CCOc1ccc(C(c2c(NC(=O)c3ccccc3)sc(C)c2C)N2CCN(CCO)CC2)cc1 (centres undefined) | -11.9% (inactive)
CN1C(=O)c2cc(NC(=O)c3ccc(Cl)cc3)ccc2OC[C@@H]2O[C@@H](CC(=O)NCc3cccc(F)c3)CC[C@H]21 | -22.6% (inactive)
COc1cc(OC)cc(-c2cc3nc(C)c(CCC(=O)O)c(C)n3n2)c1 | -9.81% (inactive)
O=C(CNC(c1ccccc1)c1ccccc1)Nc1ccccc1-c1ccccc1 | 10.7% (inactive)
O=c1cc(-c2ccccc2)oc2ccc3ccccc3c12 | -21.9% (inactive)
C[C@@H]1CN([C@@H](C)CO)C(=O)Cc2cc(N(C)C)ccc2O[C@@H]1CN(C)Cc1ccccc1 | -20.7% (inactive)
CC(C)(C)c1ccc(Cn2c(=O)cnc3ccccc32)cc1 | -40.9% (inactive)
O=C(O)c1ccc2cc(-c3ccccc3)[nH]c2c1 | -25% (inactive)
CCCCCCCCn1c2c(c(=N)c3c1CCC3)CCCC2 | -46.7% (inactive)
COc1ccc(-c2nc3c(s2)CCc2onc(-c4ccc(OC)cc4)c2-3)cc1 | -25.8% (inactive)
CC1(CCc2ccccc2)NC(=O)N(CC(=O)N2CC(=O)Nc3ccccc32)C1=O (centres undefined) | -19.7% (inactive)
CC(C)N1C/C(=C/c2cccnc2)C(=O)/C(=C/c2cccnc2)C1 | -29.5% (inactive)
COc1ccc(CCC(C)NCC2CCCCC2)cc1 (centres undefined) | -15.7% (inactive)
O=C(NCc1cccnc1)C1Cc2c(-c3ccc(Cl)cc3)ccnc2O1 (centres undefined) | -18.3% (inactive)
